We go through two compounds from BindingDB's records for PubMed 20126400 (University of Oklahoma, 2010).

Common to all, as to experiment: Ray2010 Assay 74
Experiment [1] addresses 5-hydroxytryptamine receptor 5A (Homo sapiens, UniProt P47898). The text has this:
(§1) Table S2 shows raw Ki data for the current study combined with data collected from the literature for the ten additional compounds.

Experiment [2] deals with T1, Alpha-1A adrenergic receptor (Homo sapiens, UniProt P35348).
T1 sequence (P35348 whole entry): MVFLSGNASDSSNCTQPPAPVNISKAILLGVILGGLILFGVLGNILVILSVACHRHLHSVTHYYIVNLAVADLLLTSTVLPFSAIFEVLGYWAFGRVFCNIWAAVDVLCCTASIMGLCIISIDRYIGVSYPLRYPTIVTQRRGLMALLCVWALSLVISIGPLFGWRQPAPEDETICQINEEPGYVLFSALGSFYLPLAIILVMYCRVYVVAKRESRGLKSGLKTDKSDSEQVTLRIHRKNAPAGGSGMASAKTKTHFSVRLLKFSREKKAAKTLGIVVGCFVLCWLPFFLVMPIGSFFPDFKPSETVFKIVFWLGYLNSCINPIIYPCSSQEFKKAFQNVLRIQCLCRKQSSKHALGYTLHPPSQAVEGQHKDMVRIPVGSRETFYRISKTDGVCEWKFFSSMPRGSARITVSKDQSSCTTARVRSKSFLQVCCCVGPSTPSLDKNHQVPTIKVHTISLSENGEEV
Source text: as §1

Experiment [3] has as its target 5-hydroxytryptamine receptor 1E (Homo sapiens, UniProt P28566).
Source text: as §1

The next experiment has as its target Histamine H1 receptor (Homo sapiens, UniProt P35367).
Source text: as §1

The target of a further experiment is D(2) dopamine receptor (Homo sapiens, UniProt P14416).
Source text: as §1

Experiment [4] deals with 5-hydroxytryptamine receptor 2A (Homo sapiens, UniProt P28223).
Source text: as §1

The target of experiment [5] is 5-hydroxytryptamine receptor 1B (Homo sapiens, UniProt P28222).
Source text: as §1

In another experiment the target is D(1A) dopamine receptor (Homo sapiens, UniProt P21728).
Source text: as §1

Experiment [6] deals with T2, 5-hydroxytryptamine receptor 1A (Homo sapiens, UniProt P08908).
T2 sequence (P08908 whole entry): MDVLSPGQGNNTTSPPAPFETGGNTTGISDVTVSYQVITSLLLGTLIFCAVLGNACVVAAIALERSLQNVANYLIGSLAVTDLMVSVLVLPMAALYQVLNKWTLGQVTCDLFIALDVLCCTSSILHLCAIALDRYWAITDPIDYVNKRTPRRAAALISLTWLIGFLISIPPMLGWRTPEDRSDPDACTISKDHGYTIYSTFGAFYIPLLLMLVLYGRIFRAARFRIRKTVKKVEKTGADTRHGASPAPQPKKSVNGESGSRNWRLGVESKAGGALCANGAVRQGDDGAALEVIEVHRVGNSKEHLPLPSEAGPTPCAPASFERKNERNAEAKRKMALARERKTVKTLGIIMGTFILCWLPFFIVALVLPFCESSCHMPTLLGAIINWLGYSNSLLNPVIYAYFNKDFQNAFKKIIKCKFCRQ
Source text: as §1

In experiment [7] the target is 5-hydroxytryptamine receptor 6 (Homo sapiens, UniProt P50406).
Source text: as §1

The target in experiment [8] is 5-hydroxytryptamine receptor 2B (Homo sapiens, UniProt P41595).
Source text: as §1

The target in experiment [9] is T3, Muscarinic acetylcholine receptor M5 (Homo sapiens, UniProt P08912).
T3 sequence (P08912 whole entry): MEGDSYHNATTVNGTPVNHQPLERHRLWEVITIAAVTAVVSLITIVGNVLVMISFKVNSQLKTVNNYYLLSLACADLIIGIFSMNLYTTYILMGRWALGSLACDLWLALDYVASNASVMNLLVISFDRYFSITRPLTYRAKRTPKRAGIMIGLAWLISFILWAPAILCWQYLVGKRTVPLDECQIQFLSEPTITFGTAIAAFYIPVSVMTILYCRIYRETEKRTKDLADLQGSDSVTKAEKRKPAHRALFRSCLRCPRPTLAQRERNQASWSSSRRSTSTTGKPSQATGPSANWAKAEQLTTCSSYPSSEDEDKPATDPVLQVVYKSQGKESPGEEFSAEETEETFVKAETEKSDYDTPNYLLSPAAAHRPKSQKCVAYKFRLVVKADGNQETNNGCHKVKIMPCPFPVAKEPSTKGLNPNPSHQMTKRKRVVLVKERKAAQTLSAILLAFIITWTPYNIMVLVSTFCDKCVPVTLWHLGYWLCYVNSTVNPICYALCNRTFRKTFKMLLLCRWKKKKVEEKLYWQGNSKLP
Source text: as §1

For experiment [10], the target named is Kappa-type opioid receptor (Homo sapiens, UniProt P41145).
Source text: as §1

The target in experiment [11] is T4, Muscarinic acetylcholine receptor M4 (Homo sapiens, UniProt P08173).
T4 sequence (P08173 whole entry): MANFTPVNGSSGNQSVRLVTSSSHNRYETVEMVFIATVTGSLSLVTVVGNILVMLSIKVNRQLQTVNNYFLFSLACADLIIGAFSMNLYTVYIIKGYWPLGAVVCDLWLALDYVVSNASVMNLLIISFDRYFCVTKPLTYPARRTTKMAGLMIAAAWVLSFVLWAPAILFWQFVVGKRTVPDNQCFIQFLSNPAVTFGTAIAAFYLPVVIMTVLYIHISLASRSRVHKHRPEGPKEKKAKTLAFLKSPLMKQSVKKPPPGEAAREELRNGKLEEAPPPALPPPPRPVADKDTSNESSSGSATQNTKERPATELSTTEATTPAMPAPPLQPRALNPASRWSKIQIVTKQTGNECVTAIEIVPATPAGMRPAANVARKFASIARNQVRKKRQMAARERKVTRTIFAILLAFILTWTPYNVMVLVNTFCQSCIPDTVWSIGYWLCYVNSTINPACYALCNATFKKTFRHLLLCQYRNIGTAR
Source text: as §1

Another experiment concerns the target Nischarin (Homo sapiens, UniProt Q9Y2I1).
Source text: as §1

In experiment [12] the target is T5, 5-hydroxytryptamine receptor 3A (Homo sapiens, UniProt P46098).
T5 sequence (P46098 whole entry): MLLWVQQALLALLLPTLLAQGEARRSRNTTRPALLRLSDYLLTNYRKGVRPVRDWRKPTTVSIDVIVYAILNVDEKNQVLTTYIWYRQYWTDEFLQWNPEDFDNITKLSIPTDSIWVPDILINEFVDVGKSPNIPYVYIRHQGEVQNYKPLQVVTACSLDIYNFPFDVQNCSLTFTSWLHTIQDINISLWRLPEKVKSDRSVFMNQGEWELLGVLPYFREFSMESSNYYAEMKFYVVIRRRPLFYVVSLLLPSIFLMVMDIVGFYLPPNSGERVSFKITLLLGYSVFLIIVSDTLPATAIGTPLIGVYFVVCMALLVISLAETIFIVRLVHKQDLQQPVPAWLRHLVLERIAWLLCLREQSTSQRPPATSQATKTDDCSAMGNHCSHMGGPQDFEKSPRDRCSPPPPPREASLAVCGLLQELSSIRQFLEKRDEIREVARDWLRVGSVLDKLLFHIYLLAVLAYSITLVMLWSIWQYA
Source text: as §1

A further experiment has as its target Cannabinoid receptor 2 (Homo sapiens, UniProt P34972).
Source text: as §1

For experiment [13], the target named is T6, Gamma-aminobutyric acid receptor subunit alpha-1/Adenosine receptor A1 (Homo sapiens, UniProt P14867+P30542).
T6 sequence (P30542 whole entry): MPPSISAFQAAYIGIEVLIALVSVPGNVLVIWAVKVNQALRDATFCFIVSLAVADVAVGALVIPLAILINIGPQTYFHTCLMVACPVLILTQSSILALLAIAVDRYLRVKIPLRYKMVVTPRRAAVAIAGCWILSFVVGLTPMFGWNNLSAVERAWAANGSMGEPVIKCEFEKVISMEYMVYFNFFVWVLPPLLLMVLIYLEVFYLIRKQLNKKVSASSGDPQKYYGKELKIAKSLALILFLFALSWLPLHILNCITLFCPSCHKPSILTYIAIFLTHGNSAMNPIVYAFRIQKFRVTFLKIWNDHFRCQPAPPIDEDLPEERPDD
T6 sequence (P14867 whole entry): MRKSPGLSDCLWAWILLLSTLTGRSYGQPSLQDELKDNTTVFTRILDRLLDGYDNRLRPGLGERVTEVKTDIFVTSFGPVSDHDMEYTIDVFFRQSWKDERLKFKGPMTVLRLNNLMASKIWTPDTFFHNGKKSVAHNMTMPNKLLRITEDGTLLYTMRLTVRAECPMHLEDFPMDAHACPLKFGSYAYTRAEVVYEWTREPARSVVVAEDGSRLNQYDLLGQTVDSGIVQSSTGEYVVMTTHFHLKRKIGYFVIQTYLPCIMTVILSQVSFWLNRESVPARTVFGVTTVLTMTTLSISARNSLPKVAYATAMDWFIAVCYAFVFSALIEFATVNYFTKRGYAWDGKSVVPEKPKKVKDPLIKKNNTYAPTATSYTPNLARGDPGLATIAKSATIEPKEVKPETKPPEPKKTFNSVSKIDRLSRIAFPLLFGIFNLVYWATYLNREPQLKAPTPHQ
Source text: as §1

The next experiment deals with D(1B) dopamine receptor (Homo sapiens, UniProt P21918).
Source text: as §1

The next experiment deals with Cannabinoid receptor 1 (Homo sapiens, UniProt P21554).
Source text: as §1

The target in experiment [14] is Voltage-dependent calcium channel subunit alpha-2/delta-1 (Homo sapiens, UniProt P54289).
Source text: as §1

Chain of 5-hydroxytryptamine receptor 5A (P47898 whole entry): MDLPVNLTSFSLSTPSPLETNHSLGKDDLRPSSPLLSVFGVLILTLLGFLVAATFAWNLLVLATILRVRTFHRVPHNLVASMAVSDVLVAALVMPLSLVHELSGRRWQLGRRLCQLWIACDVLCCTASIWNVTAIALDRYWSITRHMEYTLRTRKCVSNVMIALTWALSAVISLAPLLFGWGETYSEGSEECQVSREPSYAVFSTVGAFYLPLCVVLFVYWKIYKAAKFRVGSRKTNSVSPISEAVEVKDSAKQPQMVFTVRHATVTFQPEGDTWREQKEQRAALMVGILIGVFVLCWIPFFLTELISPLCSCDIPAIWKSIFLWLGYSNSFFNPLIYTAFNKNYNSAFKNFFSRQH
Chain of D(2) dopamine receptor (P14416 whole entry): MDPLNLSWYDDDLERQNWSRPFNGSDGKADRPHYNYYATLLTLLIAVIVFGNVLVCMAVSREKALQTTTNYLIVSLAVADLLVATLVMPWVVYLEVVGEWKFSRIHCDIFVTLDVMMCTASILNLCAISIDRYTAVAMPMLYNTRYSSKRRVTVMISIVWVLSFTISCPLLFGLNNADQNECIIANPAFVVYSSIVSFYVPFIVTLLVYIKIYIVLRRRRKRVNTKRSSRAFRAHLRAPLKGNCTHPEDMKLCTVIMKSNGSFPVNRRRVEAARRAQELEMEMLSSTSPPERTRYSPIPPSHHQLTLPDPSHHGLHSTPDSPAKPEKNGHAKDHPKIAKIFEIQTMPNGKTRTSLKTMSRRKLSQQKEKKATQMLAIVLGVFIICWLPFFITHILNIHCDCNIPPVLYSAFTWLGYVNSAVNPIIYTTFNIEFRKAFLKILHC
Chain of Nischarin (Q9Y2I1 whole entry): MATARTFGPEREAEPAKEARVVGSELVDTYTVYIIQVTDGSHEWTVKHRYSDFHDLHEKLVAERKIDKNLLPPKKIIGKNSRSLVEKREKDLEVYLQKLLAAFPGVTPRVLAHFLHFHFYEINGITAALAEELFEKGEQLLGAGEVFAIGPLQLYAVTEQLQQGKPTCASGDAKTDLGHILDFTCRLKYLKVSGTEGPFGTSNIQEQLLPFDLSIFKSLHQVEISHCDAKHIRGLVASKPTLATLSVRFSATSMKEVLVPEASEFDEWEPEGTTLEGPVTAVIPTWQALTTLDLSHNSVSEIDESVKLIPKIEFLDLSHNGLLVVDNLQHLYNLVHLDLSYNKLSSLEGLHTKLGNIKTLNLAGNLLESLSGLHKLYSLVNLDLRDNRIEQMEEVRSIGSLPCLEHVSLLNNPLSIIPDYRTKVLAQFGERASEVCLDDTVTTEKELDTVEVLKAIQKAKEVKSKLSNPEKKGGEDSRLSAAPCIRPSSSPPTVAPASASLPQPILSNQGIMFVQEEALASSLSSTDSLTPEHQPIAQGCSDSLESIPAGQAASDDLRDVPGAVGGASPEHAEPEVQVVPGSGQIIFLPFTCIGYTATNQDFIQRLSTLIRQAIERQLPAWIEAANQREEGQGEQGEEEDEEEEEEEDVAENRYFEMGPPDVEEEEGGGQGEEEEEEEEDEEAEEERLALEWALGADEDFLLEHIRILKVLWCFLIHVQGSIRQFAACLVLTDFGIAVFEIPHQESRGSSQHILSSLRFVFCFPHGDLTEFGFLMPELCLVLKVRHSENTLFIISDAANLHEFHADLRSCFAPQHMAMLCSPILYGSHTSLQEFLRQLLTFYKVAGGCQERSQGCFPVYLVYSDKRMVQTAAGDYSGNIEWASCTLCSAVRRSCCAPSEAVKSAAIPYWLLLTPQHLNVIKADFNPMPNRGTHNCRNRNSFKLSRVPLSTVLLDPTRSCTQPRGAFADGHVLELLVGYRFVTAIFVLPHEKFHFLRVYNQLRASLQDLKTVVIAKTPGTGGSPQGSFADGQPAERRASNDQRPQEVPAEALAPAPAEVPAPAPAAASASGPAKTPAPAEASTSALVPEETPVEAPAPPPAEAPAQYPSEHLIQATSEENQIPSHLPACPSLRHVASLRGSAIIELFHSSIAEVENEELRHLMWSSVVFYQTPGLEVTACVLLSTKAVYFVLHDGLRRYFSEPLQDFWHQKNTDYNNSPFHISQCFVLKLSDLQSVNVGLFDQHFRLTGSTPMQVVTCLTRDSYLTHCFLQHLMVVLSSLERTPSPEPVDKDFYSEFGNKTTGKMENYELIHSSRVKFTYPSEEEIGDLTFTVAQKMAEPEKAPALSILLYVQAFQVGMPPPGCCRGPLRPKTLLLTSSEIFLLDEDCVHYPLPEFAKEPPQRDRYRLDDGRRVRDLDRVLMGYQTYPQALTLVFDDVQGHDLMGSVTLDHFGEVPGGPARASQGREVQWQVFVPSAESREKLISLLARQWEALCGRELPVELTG
Chain of 5-hydroxytryptamine receptor 1E (P28566 whole entry): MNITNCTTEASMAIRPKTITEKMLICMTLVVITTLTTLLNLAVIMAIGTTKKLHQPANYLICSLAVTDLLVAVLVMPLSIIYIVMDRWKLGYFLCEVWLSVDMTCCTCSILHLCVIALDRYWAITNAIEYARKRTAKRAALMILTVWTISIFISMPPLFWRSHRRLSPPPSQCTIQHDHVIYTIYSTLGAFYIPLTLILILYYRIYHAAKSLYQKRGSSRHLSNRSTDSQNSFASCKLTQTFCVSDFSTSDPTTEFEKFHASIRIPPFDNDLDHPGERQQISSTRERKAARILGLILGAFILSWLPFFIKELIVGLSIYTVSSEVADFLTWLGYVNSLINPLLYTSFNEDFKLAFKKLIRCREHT
Chain of 5-hydroxytryptamine receptor 6 (P50406 whole entry): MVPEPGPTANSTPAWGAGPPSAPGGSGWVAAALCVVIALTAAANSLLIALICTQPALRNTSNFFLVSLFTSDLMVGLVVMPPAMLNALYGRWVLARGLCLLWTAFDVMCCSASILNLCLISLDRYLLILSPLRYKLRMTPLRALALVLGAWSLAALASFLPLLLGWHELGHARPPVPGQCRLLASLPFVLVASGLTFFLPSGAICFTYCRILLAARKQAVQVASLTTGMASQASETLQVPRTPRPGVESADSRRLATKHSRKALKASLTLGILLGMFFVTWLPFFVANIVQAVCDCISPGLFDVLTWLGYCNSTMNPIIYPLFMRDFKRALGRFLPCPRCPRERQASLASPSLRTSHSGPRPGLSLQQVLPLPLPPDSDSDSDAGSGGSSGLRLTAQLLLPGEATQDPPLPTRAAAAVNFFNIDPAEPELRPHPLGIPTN
Chain of 5-hydroxytryptamine receptor 2A (P28223 whole entry): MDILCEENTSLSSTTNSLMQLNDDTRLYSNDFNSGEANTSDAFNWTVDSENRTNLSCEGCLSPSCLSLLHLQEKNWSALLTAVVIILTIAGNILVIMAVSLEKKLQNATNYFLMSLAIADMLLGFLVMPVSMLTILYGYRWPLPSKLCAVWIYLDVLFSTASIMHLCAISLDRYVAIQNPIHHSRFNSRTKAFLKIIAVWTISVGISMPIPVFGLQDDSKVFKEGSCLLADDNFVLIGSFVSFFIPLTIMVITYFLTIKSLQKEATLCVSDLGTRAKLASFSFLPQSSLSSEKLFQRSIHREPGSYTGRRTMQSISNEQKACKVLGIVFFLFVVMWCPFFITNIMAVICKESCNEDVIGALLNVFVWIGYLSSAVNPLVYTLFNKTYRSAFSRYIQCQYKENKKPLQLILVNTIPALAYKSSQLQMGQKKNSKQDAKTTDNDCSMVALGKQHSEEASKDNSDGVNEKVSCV
Chain of Kappa-type opioid receptor (P41145 whole entry): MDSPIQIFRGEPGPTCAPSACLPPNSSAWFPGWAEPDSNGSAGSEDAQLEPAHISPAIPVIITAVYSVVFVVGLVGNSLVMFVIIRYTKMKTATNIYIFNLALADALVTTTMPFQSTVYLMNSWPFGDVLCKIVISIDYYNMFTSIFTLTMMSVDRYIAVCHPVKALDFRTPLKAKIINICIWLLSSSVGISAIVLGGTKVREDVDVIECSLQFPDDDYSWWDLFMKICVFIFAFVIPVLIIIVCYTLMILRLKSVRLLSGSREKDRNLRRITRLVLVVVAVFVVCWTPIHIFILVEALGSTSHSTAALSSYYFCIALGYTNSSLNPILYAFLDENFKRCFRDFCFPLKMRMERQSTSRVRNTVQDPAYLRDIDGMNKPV
Chain of Cannabinoid receptor 2 (P34972 whole entry): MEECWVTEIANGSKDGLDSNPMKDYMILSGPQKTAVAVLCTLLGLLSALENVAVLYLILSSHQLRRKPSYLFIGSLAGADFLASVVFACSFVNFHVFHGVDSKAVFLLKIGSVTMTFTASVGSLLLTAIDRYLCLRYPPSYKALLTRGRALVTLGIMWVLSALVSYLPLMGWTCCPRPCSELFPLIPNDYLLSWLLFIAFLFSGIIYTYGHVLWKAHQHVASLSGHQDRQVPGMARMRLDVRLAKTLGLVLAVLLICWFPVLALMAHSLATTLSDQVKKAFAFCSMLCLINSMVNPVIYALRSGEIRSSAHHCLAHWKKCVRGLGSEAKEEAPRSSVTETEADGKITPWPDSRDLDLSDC
Chain of D(1B) dopamine receptor (P21918 whole entry): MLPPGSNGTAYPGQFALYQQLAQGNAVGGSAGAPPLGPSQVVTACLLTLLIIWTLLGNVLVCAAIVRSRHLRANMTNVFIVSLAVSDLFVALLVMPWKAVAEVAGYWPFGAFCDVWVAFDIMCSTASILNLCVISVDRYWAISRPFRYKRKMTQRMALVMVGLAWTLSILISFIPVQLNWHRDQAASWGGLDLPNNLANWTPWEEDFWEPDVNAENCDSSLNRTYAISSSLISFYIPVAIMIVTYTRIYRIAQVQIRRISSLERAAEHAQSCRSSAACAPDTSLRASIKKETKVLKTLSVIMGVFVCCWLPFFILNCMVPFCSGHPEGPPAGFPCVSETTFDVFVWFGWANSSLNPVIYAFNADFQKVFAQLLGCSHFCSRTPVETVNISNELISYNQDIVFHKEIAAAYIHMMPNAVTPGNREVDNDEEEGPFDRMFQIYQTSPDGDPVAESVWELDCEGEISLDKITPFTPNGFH

`C[C@@H]1C[C@@H](C)N1C(=O)C1C=C2c3cccc4[nH]cc(c34)C[C@H]2N(C)C1` (some centres not stated) [ss-2c]: the Ki (usually the equilibrium dissociation constant of an inhibitor or competing ligand from its target) in experiment [1] came out at 0.0273 µM; in experiment [2], 0.85 µM; in experiment [3] it was 0.276 µM; on Histamine H1 receptor it was 2.5 µM; at D(2) dopamine receptor it was 0.0736 µM; in experiment [4], 0.0192 µM. For the same compound, the Ki stood at 0.0024 µM in [5]; 0.292 µM on D(1A) dopamine receptor; 0.0004 µM in experiment [6]; 0.0145 µM in experiment [7]; 0.027 µM in [8].
`CCN(CC)C(=O)N[C@H]1C=C2c3cccc4[nH]cc(c34)C[C@H]2N(C)C1` [lisuride, (S)]: the Ki was 0.0031 µM in experiment [1]; above 10 µM in experiment [9]; above 10 µM in [10]; above 10 µM in experiment [11]; above 10 µM on Nischarin; above 10 µM in experiment [12]. For the same compound, the Ki was above 10 µM on Cannabinoid receptor 2; above 10 µM in experiment [13]; 0.077 µM at D(1B) dopamine receptor; above 10 µM at Cannabinoid receptor 1; above 10 µM in experiment [14].
